Source: patent US20090247495A1, “CU[…] AND USES THEREOF” (priority 2007, published 2009)
≈ marks a conversion by molar mass, not a printed value.

What was measured:
Format in all cases: cell-based
[1] = test system: HepG2(liver), HT29(colon) and MCF-7(breast); test: MTT cell cytotoxicity assay, three cancer cell lines; conditions: Homo sapiens; 48 hours; range over the three cell lines
Protocol: (§1) Three human cancer cell lines (HepG2(liver), HT29(colon) and MCF-7(breast)) were purchased from American Type Culture Collection (ATCC, Manassas, Va., USA). The cells were cultured in RPMI 1640 medium supplemented with 5% (v/v) fetal bovine serum (FBS) and 100 units/ml penicillin and streptomycin (Invitrogen Life Technologies) in a humidified 5% CO2 atmosphere at 37° C.
The cytotoxic effect of CuB and CuD on these three cancer cell lines were determined using MTT (3-[4,5-dimethylthiazol-2-yl]-2,5-diphenyl tetrazolium bromide) labeled cell cytotoxicity assay. A total of 1×10^4 cells were seeded into a 96-well plate for 24 hours prior to cucurbitacin B (CuB) or cucurbitacin D (CuD) treatment. They were then treated with different dosages of CuB/CuD for 48 hours. After the treatment, 20 μl of MTT (5 mg/ml) was added to each well and incubated for 4 hrs. Then the medium was discarded and 100 μl of dimethyl sulfoxide was added. The absorbance at 570 nm was then measured by using FLUOstar OPTIMA equipment (BMG, LABTECH GmbH, Germany). The percentage of inhibition against different dosages of CuB/CuD were plotted using the Prism software and the 50% inhibition concentration (IC50) were obtained.

[2] = test system: Human liver cancer cell lines HepG2; test: MTT cytotoxicity assay, matrix combination of CuB and Sb on liver cancer cells; conditions: HepG2, 2 days, Sb 0 μM
Protocol: as §1, with “Human liver” for “Three human”, “HepG2 was” for “(HepG2(liver), HT29(colon) and MCF-7(breast)) were”
A total of 1×10^4 cells were seeded into a 96-well plate for 24 hours prior to drug treatment. They were then treated with different dosages (a multiple of 20-fold of IC50 values) of CuB or Sb for 48 hours. After the treatment, 20 μl of MTT (5 mg/ml) was added to each well and incubated for 4 hrs. Then the medium was discarded and 100 μl of dimethyl sulfoxide was added. The absorbance at 570 nm was then measured by using FLUOstar OPTIMA equipment (BMG, LABTECH GmbH, Germany). The percentage of inhibition against different dosages of CuB or Sb were plotted using the Prism software and the 50% inhibition concentration (IC50) were obtained.
The cells were then treated for 2 days and the % inhibition of growth is determined.
The excess over Bliss additivism may be calculated using the following formula and shown in Table 4: • Bliss Additivism: Combined response=CuB+Sb−(CuB)(Sb) where each effect is expressed as fractional inhibition between 0 and 1 • Excess over additivism=observed response−combined response

[3] = test system: Human cancer cell lines from the 59-NCI Cancer Cell Line Panel; test: Apoptosis (Annexin V-FITC / PI) by flow cytometry, 18 selected NCI panel cell lines; conditions: 48 hours; GI50, ½ GI50 and ¼ GI50
Protocol: Apoptosis is the important mechanism for cell death in normal cells. In cancer cells, this mechanism fails and cells proliferate without control. Human cancer cell lines from the 59-NCI Cancer Cell Line Panel including leukemia, melanoma and cancers of breast, brain, colon, lung, ovary, prostate and kidney were purchased from the National Institute of Cancer. […] They were treated with cucurbitacin B and cucurbitacin D at three different concentrations to elucidate their ability to induce any changes in cell cycle.
Cancer cell lines were maintained in RPMI 1640 supplemented with 5% Fetal Bovine Serum, 2 mM L-glutamine and 1% Penicillin/Streptomycin at 37° C. with 5% CO2. Cells were inoculated into tissue culture flask at cell concentrations from 50000 to 400,000 cells/ml according to the NCI guideline. The cells were incubated at 37° C. with 5% CO2 for 24 hours. Cucurbitacin B and cucurbitacin D were added to the cells of final concentrations ranging from 6 to 350 nM (GI50, ½ GI50 and ¼ GI50 of particular cell line) for 48 hours at 37° C. with 5% CO2. Cells (3×10^5) were then harvested and stained with 5 μl Annexin V-FITC and 10 μl propidium iodine (Becton Dickinson, CA, USA) for 15 minutes at room temperature. Ten thousands events were collected by the FACScaliber and the percentage of different cell populations were analyzed by the CellQuest™ software (Becton Dickinson).

## CC(=O)OC(C)(C)/C=C/C(=O)[C@](C)(O)C1[C@H](O)C[C@@]2(C)C3CC=C4C(C[C@H](O)C(=O)C4(C)C)[C@]3(C)C(=O)C[C@]12C (some centres unmarked) [cucurbitacin B]
[1]
  IC50: 0.31 to 1.6 µg/mL (≈ 0.555 to 2.86 µM)
[2]; CuB 0.056 μM
  % inhibition: 25.89%
  Excess over Bliss additivism: 0
  Excess over Highest Single Agent Model: 0
[2]; CuB 0.167 μM
  % inhibition: 41.93%
  Excess over Bliss additivism: 0
  Excess over Highest Single Agent Model: 0
[2]; CuB 0.5 μM
  % inhibition: 37.94%
  Excess over Bliss additivism: 0
  Excess over Highest Single Agent Model: 0
[2]; CuB 1.5 μM
  % inhibition: 39.01%
  Excess over Bliss additivism: 0
  Excess over Highest Single Agent Model: 0
[2]; CuB 4.5 μM
  % inhibition: 36.57%
  Excess over Bliss additivism: 0
  Excess over Highest Single Agent Model: 0
[3]
  cell lines in which apoptosis was induced: 9 out of 18
